Structures can show the parent of a compound that is named as a salt.
Target: T1, human β-Secretase (Homo sapiens, UniProt P56817)
T1 construct: The soluble part of the human β-Secretase (AA 1-AA 460) was cloned; made in house
Test: TR-FRET assay
Assay type: biochemical

T1 sequence (P56817 22-460): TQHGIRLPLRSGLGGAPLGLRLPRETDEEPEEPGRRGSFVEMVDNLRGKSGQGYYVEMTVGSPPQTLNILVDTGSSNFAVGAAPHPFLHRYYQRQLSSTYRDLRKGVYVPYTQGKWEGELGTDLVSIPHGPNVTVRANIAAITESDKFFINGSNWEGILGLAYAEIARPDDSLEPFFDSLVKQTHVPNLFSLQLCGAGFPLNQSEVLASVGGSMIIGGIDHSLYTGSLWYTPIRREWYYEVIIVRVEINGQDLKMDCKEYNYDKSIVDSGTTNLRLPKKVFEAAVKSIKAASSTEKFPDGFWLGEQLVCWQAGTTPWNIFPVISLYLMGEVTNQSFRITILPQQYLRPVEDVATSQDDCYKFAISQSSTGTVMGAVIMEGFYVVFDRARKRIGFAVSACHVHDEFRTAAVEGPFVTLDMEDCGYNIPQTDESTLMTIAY

| IC50 [nM] | SMILES |
| --- | --- |
| 9140 | NC1=NC(c2ccccc2)(c2ccccc2)c2ccccc21 [Example 1, 3,3-Diphenyl-3H-isoindol-1-ylamine] |
| 110 | COc1ccc(C2(c3cccc(-c4cccc(OC)c4)c3)N=C(N)c3ccccc32)cc1 (stereo not drawn) [Example 2, 3-(3′-Methoxy-biphenyl-3-yl)-3-(4-methoxy-phenyl)-3H-isoindol-1-ylamine trifluoroacetate] |
| 12000 | COc1ccc(C2(c3ccc(OS(=O)(=O)C(F)(F)F)c(-c4cccc(OC)c4)c3)N=C(N)c3ccccc32)cc1 (stereo not drawn) [Example 3, Trifluoro-methanesulfonic acid 5-[3-amino-1-(4-methoxy-phenyl)-1H-isoindol-1-yl]-3′-methoxy-biphenyl-2-yl ester trifluoroacetate] |
| 67 | COc1ccc(C2(c3ccc(O)c(-c4cccc(OC)c4)c3)N=C(N)c3ccccc32)cc1 (stereo not drawn) [Example 4, 5-[3-Amino-1-(4-methoxy-phenyl)-1H-isoindol-1-yl]-3′-methoxy-biphenyl-2-ol trifluoroacetate] |
| 3520 | NC1=NC(c2ccc(O)cc2)(c2ccc(O)cc2)c2ccccc21 [Example 6, 4,4′-(3-Amino-isoindole-1,1-diyl)-bis-phenol] |
| 86 | COc1ccc(C2(c3ccc(O)c(-c4cccnc4)c3)N=C(N)c3ccccc32)cc1 (stereo not drawn) [Example 7, 4-[3-Amino-1-(4-methoxy-phenyl)-1H-isoindol-1-yl]-2-pyridin-3-yl-phenol trifluoroacetate] |
| 40 | COc1ccc(C2(c3ccc(O)c(-c4cncnc4)c3)N=C(N)c3ccccc32)cc1 (stereo not drawn) [Example 8, 4-[3-Amino-1-(4-methoxy-phenyl)-1H-isoindol-1-yl]-2-pyrimidin-5-yl-phenol trifluoroacetate] |
| 154 | COc1ccc(C2(c3cccc(-c4cccnc4)c3)N=C(N)c3ccccc32)cc1 (stereo not drawn) [Example 9, 3-(4-Methoxy-phenyl)-3-(3-pyridin-3-yl-phenyl)-3H-isoindol-1-ylamine trifluoroacetate] |
| 78 | COc1ccc(C2(c3cccc(-c4cccnc4F)c3)N=C(N)c3ccccc32)cc1 (stereo not drawn) [Example 10, 3-[3-(2-Fluoro-pyridin-3-yl)-phenyl]-3-(4-methoxy-phenyl)-3H-isoindol-1-ylamine trifluoroacetate] |
| 68 | COc1ccc(C2(c3cccc(-c4cncc(OC)c4)c3)N=C(N)c3ccccc32)cc1 (stereo not drawn) [Example 12, 3-(4-Methoxy-phenyl)-3-[3-(5-methoxy-pyridin-3-yl)-phenyl]-3H-isoindol-1-ylamine trifluoroacetate] |
| 106 | COc1ccc(C2(c3cccc(-c4cncnc4)c3)N=C(N)c3ccccc32)cc1 (stereo not drawn) [Example 13, 3-(4-Methoxy-phenyl)-3-(3-pyrimidin-5-yl-phenyl)-3H-isoindol-1-ylamine trifluoroacetate] |
| 153 | COc1ccc(C2(c3cccc(-c4cc(OC)cc(OS(C)(=O)=O)c4)c3)N=C(N)c3ccccc32)cc1 (stereo not drawn) [Example 14, Methanesulfonic acid 3′-[3-amino-1-(4-methoxy-phenyl)-1H-isoindol-1-yl]-5-methoxy-biphenyl-3-yl ester trifluoroacetate] |
| 748 | NC1=NC(c2cccc(-c3cccnc3F)c2)(c2ccc3c(c2)OCCO3)c2ccccc21 (stereo not drawn) [Example 15, 3-(2,3-Dihydrobenzo[b][1,4]dioxin-6-yl)-3-(3-(2-fluoropyridin-3-yl)phenyl)-3H-isoindol-1-amine trifluoroacetate] |
| 425 | COc1cncc(-c2cccc(C3(c4ccc5c(c4)OCCO5)N=C(N)c4ccccc43)c2)c1 (stereo not drawn) [Example 16, 3-(2,3-Dihydrobenzo[b][1,4]dioxin-6-yl)-3-(3-(5-methoxypyridin-3-yl)phenyl)-3H-isoindol-1-amine trifluoroacetate] |
| 1520 | NC1=NC(c2cccc(-c3cccnc3)c2)(c2ccc3c(c2)OCCO3)c2ccccc21 (stereo not drawn) [Example 17, 3-(2,3-Dihydrobenzo[b][1,4]dioxin-6-yl)-3-(3-(pyridin-3-yl)phenyl)-3H-isoindol-1-amine trifluoroacetate] |
| 593 | NC1=NC(c2cccc(-c3cncnc3)c2)(c2ccc3c(c2)OCCO3)c2ccccc21 (stereo not drawn) [Example 18, 3-(2,3-Dihydrobenzo[b][1,4]dioxin-6-yl)-3-(3-(pyrimidin-5-yl)phenyl)-3H-isoindol-1-amine trifluoroacetate] |
| 1360 | COc1ccc(C2(c3cccc(Br)c3)N=C(N)c3ccccc32)cc1C (stereo not drawn) [Example 19, 3-(3-Bromo-phenyl)-3-(4-methoxy-3-methyl-phenyl)-3H-isoindol-1-ylamine trifluoroacetate] |
| 101 | COc1cccc(-c2cccc(C3(c4ccc(OC)c(C)c4)N=C(N)c4ccccc43)c2)c1 (stereo not drawn) [Example 20, 3-(3′-Methoxy-biphenyl-3-yl)-3-(4-methoxy-3-methyl-phenyl)-3H-isoindol-1-ylamine trifluoroacetate] |

| IC50 [nM] | SMILES |
| --- | --- |
| 42 | COc1cncc(-c2cccc(C3(c4ccc(OC)c(C)c4)N=C(N)c4ccccc43)c2)c1 (stereo not drawn) [Example 21, 3-(4-Methoxy-3-methyl-phenyl)-3-[3-(5-methoxy-pyridin-3-yl)-phenyl]-3H-isoindol-1-ylamine trifluoroacetate] |
| 145 | COc1ccc(C2(c3cccc(-c4cccnc4)c3)N=C(N)c3ccccc32)cc1C (stereo not drawn) [Example 22, 3-(4-Methoxy-3-methyl-phenyl)-3-(3-pyridin-3-yl-phenyl)-3H-isoindol-1-ylamine trifluoroacetate] |
| 88 | COc1ccc(C2(c3cccc(-c4cncnc4)c3)N=C(N)c3ccccc32)cc1C (stereo not drawn) [Example 23, 3-(4-Methoxy-3-methyl-phenyl)-3-(3-pyrimidin-5-yl-phenyl)-3H-isoindol-1-ylamine trifluoroacetate] |
| 54 | COc1ccc(C2(c3cccc(-c4cccnc4F)c3)N=C(N)c3ccccc32)cc1C (stereo not drawn) [Example 24, 3-[3-(2-Fluoro-pyridin-3-yl)-phenyl]-3-(4-methoxy-3-methyl-phenyl)-3H-isoindol-1-ylamine trifluoroacetate] |
| 86 | COc1cc(OS(C)(=O)=O)cc(-c2cccc(C3(c4ccc(OC)c(C)c4)N=C(N)c4ccccc43)c2)c1 (stereo not drawn) [Example 25, Methanesulfonic acid 3′-[3-amino-1-(4-methoxy-3-methyl-phenyl)-1H-isoindol-1-yl]-5-methoxy-biphenyl-3-yl ester trifluoroacetate] |
| 1280 | COc1cc(OS(C)(=O)=O)cc(-c2cccc(C3(c4ccc5c(c4)OCCO5)N=C(N)c4ccccc43)c2)c1 (stereo not drawn) [Example 26, 5′-(3-Amino-1-(2,3-dihydrobenzo[b][1,4]dioxin-6-yl)-1H-isoindol-1-yl)-5-methoxybiphenyl-3-yl methanesulfonate trifluoroacetate] |
| 1060 | COc1cccc(-c2cccc(C3(c4ccc5c(c4)OCCO5)N=C(N)c4ccccc43)c2)c1 (stereo not drawn) [Example 27, 3-(2,3-Dihydrobenzo[b][1,4]dioxin-6-yl)-3-(3′-methoxybiphenyl-3-yl)-3H-isoindol-1-amine trifluoroacetate] |
| 1610 | NC1=NC(c2cccc(-c3cccnc3)c2)(c2ccc3c(c2)OCO3)c2ccccc21 (stereo not drawn) [Example 28, 3-Benzo[1,3]dioxol-5-yl-3-(3-pyridin-3-yl)-3H-isoindol-1-ylamine trifluoroacetate] |
| 942 | NC1=NC(c2cccc(-c3cncnc3)c2)(c2ccc3c(c2)OCO3)c2ccccc21 (stereo not drawn) [Example 30, 3-Benzo[1,3]dioxol-5-yl-3-(3-pyrimidin-5-ylphenyl)-3H-isoindol-1-ylamine trifluoroacetate] |
| 768 | NC1=NC(c2cccc(-c3cccnc3F)c2)(c2ccc3c(c2)OCO3)c2ccccc21 (stereo not drawn) [Example 31, 3-Benzo[1,3]dioxol-5-yl-3-[3-(2-fluoropyridin-3-yl)-phenyl]-3H-isoindol-1-ylamine trifluoroacetate] |
| 708 | COc1cncc(-c2cccc(C3(c4ccc5c(c4)OCO5)N=C(N)c4ccccc43)c2)c1 (stereo not drawn) [Example 32, 3-Benzo[1,3]dioxol-5-yl-3-[3-(5-methoxy-pyridin-3-yl)-phenyl]3H isoindol-1-ylamine trifluoroacetate] |
| 1330 | COc1cccc(-c2cccc(C3(c4ccc5c(c4)OCO5)N=C(N)c4ccccc43)c2)c1 (stereo not drawn) [Example 33, 3-Benzo[1,3]dioxol-5-yl-3-(3′-methoxy-biphenyl-3-yl)-3H-isoindol-1-ylamine trifluoroacetate] |
| 1090 | COc1cc(OS(C)(=O)=O)cc(-c2cccc(C3(c4ccc5c(c4)OCO5)N=C(N)c4ccccc43)c2)c1 (stereo not drawn) [Example 34, Methanesulfonic acid 3′-(3-amino-1-benzo[1,3]dioxol-5-yl-1H-isoindol-1-yl)-5-methoxy-biphenyl-3-yl ester trifluoroacetate] |
| 950 | CS(=O)(=O)Oc1ccc(C2(c3cccc(-c4cccnc4)c3)N=C(N)c3ccccc32)cc1 (stereo not drawn) [Example 35, Methanesulfonic acid 4-[3-amino-1-(3-pyridin-3-yl-phenyl)-1H-isoindol-1-yl]-phenyl ester trifluoroacatete] |
| 569 | CS(=O)(=O)Oc1ccc(C2(c3cccc(-c4cccnc4F)c3)N=C(N)c3ccccc32)cc1 (stereo not drawn) [Example 37, Methanesulfonic acid 4-{3-amino-1-[3-(2-fluoro-pyridin-3-yl)-phenyl]-1H-isoindol-1-yl}-phenyl ester trifluoroacetate] |
| 706 | CS(=O)(=O)Oc1ccc(C2(c3cccc(-c4cncnc4)c3)N=C(N)c3ccccc32)cc1 (stereo not drawn) [Example 38, Methanesulfonic acid 4-[3-amino-1-(3-pyrimidin-5-yl-phenyl)-1H-isoindol-1-yl]-phenyl ester trifluoroacetate] |
| 350 | COc1cncc(-c2cccc(C3(c4ccc(OS(C)(=O)=O)cc4)N=C(N)c4ccccc43)c2)c1 (stereo not drawn) [Example 39, Methanesulfonic acid 4-{3-amino-1-[3-(5-methoxy-pyridin-3-yl)-phenyl]-1H-isoindol-1-yl}-phenyl ester trifluoroacetate] |
| 570 | COc1cccc(-c2cccc(C3(c4ccc(OS(C)(=O)=O)cc4)N=C(N)c4ccccc43)c2)c1 (stereo not drawn) [Example 40, Methanesulfonic acid 4-[3-amino-1-(3′-methoxy-biphenyl-3-yl)-1H-isoindol-1-yl]-phenyl ester trifluoroaceate] |

From patent US7855213B2 (AstraZeneca AB, priority 2006, dated 2010)
